Source: US6727237B2, “Inhibitors of bacterial NAD synthetase” (priority 1998, dated 2004)

Key:
[1] = test system: Staphylococcus epidermitis; experiment: Bacterial growth inhibition screen in LB media (absorbance 595 nm), percent inhibition; settings: S. epidermitis
[2] = target: T1, bacterial NAD synthetase enzyme (Bacillus subtilis, UniProt P08164); experiment: biochemical; assay type: biochemical
T1 sequence (P08164 2-272 limits assumed): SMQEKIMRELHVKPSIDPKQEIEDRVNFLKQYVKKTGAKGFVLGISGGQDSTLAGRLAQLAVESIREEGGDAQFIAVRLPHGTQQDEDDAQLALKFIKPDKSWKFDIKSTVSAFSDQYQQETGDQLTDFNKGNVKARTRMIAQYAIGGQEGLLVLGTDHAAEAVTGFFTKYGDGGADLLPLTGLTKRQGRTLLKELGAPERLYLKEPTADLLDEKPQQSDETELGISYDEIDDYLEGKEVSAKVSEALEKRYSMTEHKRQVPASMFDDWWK

[3] = compound at 0.2 mM (Table 312A)
[4] = compound at 0.2 mM (Table 312B)

In the case of `c1ccc(Oc2ccc3[nH]c(CCCCC[n+]4ccccc4)cc3c2)cc1` [Compound 350], the “% Inhibition” value ([1]; concentration screened 10 uM) is reported as 7.59%.

With `CN(C)c1cccc(C(=O)OCCCCc2cc3cc(C(F)(F)F)ccc3[nH]2)c1` [Compound 606] the “% Inhibition” value ([1]; concentration screened 100 uM) was 9.17%.

`CC(C)c1ccc2[nH]c(CCCCCCCOC(=O)c3ccccc3-c3ccccc3)cc2c1` [Compound 631] was tested, and the “% Inhibition” value ([1]; concentration screened 10 uM) was 12.19%.

For `CN(C)c1cccc(C(=O)OCCCCc2cc3cc(C(=O)c4ccccc4)ccc3[nH]2)c1` [Compound 642], the “% Inhibition” value ([1]; concentration screened 100 uM) was 8.86%.

`O=C(OCCCCCCCc1cc2cc(C(=O)c3ccccc3)ccc2[nH]1)c1cccnc1` [Compound 694] was tested, and the “% Inhibition” value ([1]; concentration screened 10 uM) was 2.59%.

With `CC(C)c1ccc2[nH]c(CCCCOC(=O)c3cccc(N(C)C)c3)cc2c1` [Compound 624] the “% Inhibition” value ([1]; concentration screened 100 uM) was 19.16%.

In the case of `CN(C)c1cccc(C(=O)OCCCCc2cc3cc(Oc4ccccc4)ccc3[nH]2)c1` [Compound 615], the “% Inhibition” value ([1]; concentration screened 100 uM) is reported as 11.81%.

With `FC(F)(F)c1ccc2[nH]c(CCCCCC[n+]3cccc4ccccc43)cc2c1` [Compound 471] the “% Inhibition” value ([1]; concentration screened 10 uM) was 14.07%.

In the case of `O=C(OCCCCc1cc2ccc(C(F)(F)F)cc2[nH]1)c1cccnc1` [Compound 681], the “% Inhibition” value ([1]; concentration screened 10 uM) is reported as 4.22%.

In the case of `FC(F)(F)c1ccc2cc(CCCCCCC[n+]3cccc4ccccc43)[nH]c2c1` [Compound 400], the “% Inhibition” value ([1]; concentration screened 10 uM) is reported as 5.50%.

`O=C(OCCCCCCCCc1cc2cc([N+](=O)[O-])ccc2[nH]1)C(c1ccccc1)c1ccccc1` [Compound 726] was tested, and the “% Inhibition” value ([1]; concentration screened 10 uM) was 16.76%.

In the case of `CN(C)c1ccc(C(=O)OCCCCCCCc2cc3cc(C(=O)c4ccccc4)ccc3[nH]2)cc1` [Compound 646], the “% Inhibition” value ([1]; concentration screened 10 uM) is reported as 1.09%.

`O=C(OCCCCCCCCc1cc2cc(C(=O)c3ccccc3)ccc2[nH]1)c1ccncc1` [Compound 710] was tested, and the “% Inhibition” value ([1]; concentration screened 10 uM) was 6.95%.

With `O=C(OCCCCCCCCc1cc2cc(Oc3ccccc3)ccc2[nH]1)c1cccnc1` [Compound 686] the “% Inhibition” value ([1]; concentration screened 10 uM) was 22.14%.

For `O=C(OCCCCCCCc1cc2cc(C(F)(F)F)ccc2[nH]1)c1cccnc1` [Compound 655], the “% Inhibition” value ([1]; concentration screened 10 uM) was 11.51%.

In the case of `CC(=O)c1ccc2[nH]c(CCCCCCCOC(=O)c3cccc(N(C)C)c3)cc2c1` [Compound 634], the “% Inhibition” value ([1]; concentration screened 10 uM) is reported as 10.08%.

With `O=[N+]([O-])c1cc([N+](=O)[O-])c2[nH]c(CCCCCCCC[n+]3ccccc3)cc2c1` [Compound 311] the “% Inhibition” value [2, 3] was 29.67%.

`O=[N+]([O-])c1cc([N+](=O)[O-])c2[nH]c(CCCCCC[n+]3ccc4ccccc4c3)cc2c1` [Compound 525] was tested, and the “% Inhibition” value [2, 3] was 8.39%.

`CC(=O)C=Cc1ccc(OCCCCCCCCOC(=O)c2ccc[n+](C)c2)cc1` [compound 1061] was tested, and the “% Inhibition” value [2, 4] was 61%.

`CC(=O)C=Cc1ccc(OCCCCCCCCOC(=O)Cc2ccc([N+](C)(C)C)cc2)cc1` [Compound 1081] showed an IC50 [2] of 67.5 µM and an inhibition at 200 µM [2] of 84%.

In the case of `C[n+]1cccc(C(=O)OCCCCCCCCOc2ccc(OC(=O)c3ccccc3)cc2)c1` [compound 1062], the “% Inhibition” value [2, 4] is reported as 18%.

`COC(=O)c1ccc2[nH]c(CCCC[n+]3ccc4ccccc4c3)cc2c1` [Compound 595] was tested, and the “% Inhibition” value [2, 3] was 17.94%.

With `O=C(OCCCCCCn1ccc2ccccc21)c1cccnc1` [Compound 943] the “% Inhibition” value ([2]; compound at 0.1 mM (Table 314)) was 21.38%.

With `C[n+]1cccc(C(=O)OCCCCCCCCOc2ccccc2[N+](=O)[O-])c1` [compound 1055] the “% Inhibition” value [2, 4] was 46%.

`C[N+](C)(C)c1cccc(C(=O)OCCCCCCCCc2cc3ccc(C(F)(F)F)cc3[nH]2)c1` [Compound 870] was tested, and the “% Inhibition” value ([2]; compound at 0.25 mM) was 63.1%.

In the case of `CC(C)c1ccc2[nH]c(CCCC[n+]3ccccc3)cc2c1` [Compound 319], the “% Inhibition” value ([2]; compound at 0.1 mM (Table 314)) is reported as 16.99%.

In the case of `C[n+]1cccc(C(=O)OCCCCCCCn2ccc3ccccc32)c1` [Compound 968], the “% Inhibition” value [2, 3] is reported as 88.52%.

In the case of `O=C(O)c1ccc2[nH]c(CCC[n+]3ccc4ccccc4c3)cc2c1` [Compound 600], the “% Inhibition” value [2, 3] is reported as 3.10%.

Work on `CC(=O)c1ccc(OCCCCCCCCOC(=O)Cc2ccc([N+](C)(C)C)cc2)cc1` [Compound 1078] yielded an IC50 [2] of 123 µM and an inhibition at 200 µM [2] of 68%.

In the case of `O=[N+]([O-])c1ccc2c(ccn2CCCCCCCC[n+]2ccccc2)c1` [Compound 6], the “% Inhibition” value [2, 3] is reported as 5.67%.

`CC(=O)c1ccc2[nH]c(CCCCOC(=O)c3cc[n+](C)cc3)cc2c1` [Compound 907] was tested, and the “% Inhibition” value ([2]; compound at 0.25 mM) was 20.6%.

Work on `CC(=O)c1ccc2[nH]c(CCCCCCCCOC(=O)c3ccc([N+](C)(C)C)cc3)cc2c1` [Compound 894] yielded an IC50 [2] of 50 µM and an inhibition at 100 µM [2] of 91.1%.

With `c1ccc(-c2ccc3[nH]c(CCCCCCCC[n+]4ccccc4)cc3c2)cc1` [Compound 329] the “% Inhibition” value [2, 3] was 30.77%.

With `C[n+]1ccc(C(=O)OCCCCc2cc3cc(C(=O)c4ccccc4)ccc3[nH]2)cc1` [Compound 910] the “% Inhibition” value ([2]; compound at 0.25 mM) was 88.5%.

In the case of `Fc1cc(F)c2[nH]c(CCCCC[n+]3ccccc3)cc2c1` [Compound 302], the “% Inhibition” value [2, 3] is reported as 21.48%.

`O=C(OCCCCCCCCOc1ccc(Oc2ccccc2)cc1)c1cccnc1` [Compound 1016] was tested, and the “% Inhibition” value [2, 4] was 29%.

For `O=[N+]([O-])c1cc([N+](=O)[O-])c2[nH]c(CCC[n+]3ccc4ccccc4c3)cc2c1` [Compound 522], the “% Inhibition” value [2, 3] was 35.74%.

With `C[N+](C)(C)c1cccc(C(=O)OCCCCCCCCc2cc3cc(C(=O)c4ccccc4)ccc3[nH]2)c1` [Compound 882] the IC50 [2] was 90 µM and the inhibition at 100 µM [2] was 94.5%.

With `C[N+](C)(C)c1ccc(CC(=O)OCCCCCCn2ccc3ccccc32)cc1` [Compound 979] the “% Inhibition” value [2, 3] was 38.72%.

`O=[N+]([O-])c1ccc2[nH]c(CCCCCCC[n+]3ccccc3)cc2c1` [Compound 334] was tested, and the “% Inhibition” value [2, 3] was 41.67%.

`C[N+](C)(C)c1ccc(CC(=O)OCCCCCCCn2ccc3ccccc32)cc1` [Compound 980] was tested, and the “% Inhibition” value [2, 3] was 74.86%.

In the case of `c1ccc(Oc2ccc3[nH]c(CCCCCCCC[n+]4ccc5ccccc5c4)cc3c2)cc1` [Compound 569], the “% Inhibition” value [2, 3] is reported as 34.84%.

In the case of `Fc1ccc2[nH]c(CCCC[n+]3ccc4ccccc4c3)cc2c1` [Compound 559], the “% Inhibition” value [2, 3] is reported as 33.24%.

With `COC(=O)c1cc2ccccc2n1CCCCCCCCCOC(=O)c1ccc[n+](C)c1` [Compound 974] the IC50 [2] was 35 µM and the inhibition at 100 µM [2] was 88.2%.

With `C[n+]1cccc(C(=O)OCCCCCCCCOc2cccc(OC(=O)c3ccccc3)c2)c1` [compound 1059] the “% Inhibition” value [2, 4] was 85%.

`C[n+]1ccc(C(=O)OCCCCc2cc3cc(Oc4ccccc4)ccc3[nH]2)cc1` [Compound 901] was tested, and the “% Inhibition” value ([2]; compound at 0.25 mM) was 32.8%.

With `CC(=O)N1CCN(c2ccc(OCCCCCCCCOC(=O)Cc3ccc(N(C)C)cc3)cc2)CC1` [Compound 1025] the “% Inhibition” value [2, 4] was 15%.

With `COc1ccc2c(ccn2CCCCCOC(=O)c2ccc[n+](C)c2)c1` [Compound 761] the “% Inhibition” value [2, 3] was 6.88%.

`c1ccc(Oc2ccc3[nH]c(CCCCCCC[n+]4cccc5ccccc54)cc3c2)cc1` [Compound 460] was tested, and the “% Inhibition” value [2, 3] was 4.17%.

With `C[N+](C)(C)c1ccc(CC(=O)OCCCCCCCCOc2cccc(OC(=O)c3ccccc3)c2)cc1` [Compound 1079] the IC50 [2] was 36.2 µM and the inhibition at 200 µM [2] was 97%.

For `C[N+](C)(C)c1ccc(C(=O)OCCCCCCCCc2cc3cc(C(=O)c4ccccc4)ccc3[nH]2)cc1` [Compound 897], the “% Inhibition” value ([2]; compound at 0.25 mM) was 50.9%.

In the case of `COC(=O)c1cc2ccccc2n1CCCCCCOC(=O)c1ccc[n+](C)c1` [Compound 971], the “% Inhibition” value ([2]; compound at 0.1 mM (Table 314)) is reported as 100.00%.

With `FC(F)(F)c1ccc2cc(CCCC[n+]3ccc4ccccc4c3)[nH]c2c1` [Compound 505] the “% Inhibition” value [2, 3] was 25.51%.

With `c1ccc(-c2ccc3[nH]c(CCCC[n+]4ccccc4)cc3c2)cc1` [Compound 325] the “% Inhibition” value ([2]; compound at 0.1 mM (Table 314)) was 53.22%.

For `O=[N+]([O-])c1cc([N+](=O)[O-])c2[nH]c(CCCCCCC[n+]3ccc4ccccc4c3)cc2c1` [Compound 526], the “% Inhibition” value [2, 3] was 42.77%.

`CC(=O)c1ccccc1OCCCCCCCCOC(=O)Cc1ccc([N+](C)(C)C)cc1` [Compound 1076] showed an IC50 [2] of 135 µM and an inhibition at 200 µM [2] of 74%.

For `CC(=O)c1ccc2[nH]c(CCCCOC(=O)c3ccc([N+](C)(C)C)cc3)cc2c1` [Compound 892], the “% Inhibition” value ([2]; compound at 0.25 mM) was 97.7%.

`C[n+]1cccc(C(=O)OCCCCCCCCOc2ccc([N+](=O)[O-])cc2)c1` [compound 1053] was tested, and the “% Inhibition” value [2, 4] was 72%.

Work on `C[N+](C)(C)c1ccc(CC(=O)OCCCCCCCCn2ccc3ccccc32)cc1` [Compound 981] yielded an IC50 [2] of 60 µM and an inhibition at 200 µM [2] of 95.2%.

For `CCCCc1ccc2[nH]c(CCCC[n+]3ccccc3)cc2c1` [Compound 313], the “% Inhibition” value ([2]; compound at 0.1 mM (Table 314)) was 27.37%.

`O=C(O)c1ccc2[nH]c(CCCCC[n+]3cccc4ccccc43)cc2c1` [Compound 494] was tested, and the “% Inhibition” value [2, 3] was 17.44%.

For `CC(=O)c1ccc2[nH]c(CCCCCCCOC(=O)c3ccc(N(C)C)cc3)cc2c1` [Compound 637], the “% Inhibition” value ([2]; compound at 0.1 mM (Table 314)) was 4.42%.

In the case of `FC(F)(F)c1ccc2cc(CCCCCC[n+]3cccc4ccccc43)[nH]c2c1` [Compound 399], the “% Inhibition” value [2, 3] is reported as 15.22%.

For `CCCCc1ccc2[nH]c(CCC[n+]3ccc4ccccc4c3)cc2c1` [Compound 528], the “% Inhibition” value [2, 3] was 65.81%.

With `CCCCc1ccc2[nH]c(CCCCCCCC[n+]3cccc4ccccc43)cc2c1` [Compound 425] the “% Inhibition” value [2, 3] was 19.12%.

For `CC(=O)c1ccc2[nH]c(CCCCCCCCOC(=O)c3cccc([N+](C)(C)C)c3)cc2c1` [Compound 879], the IC50 [2] was 40 µM and the inhibition at 100 µM [2] was 99.6%.

For `CC(=O)c1ccc(OCCCCCCCCOC(=O)c2ccc[n+](C)c2)cc1` [compound 1058], the “% Inhibition” value [2, 4] was 18%.

Molecule `CC(=O)c1ccc2[nH]c(CCCCCCCCOC(=O)c3cc[n+](C)cc3)cc2c1` [Compound 909] has an IC50 [2] of 25 µM and an inhibition at 100 µM [2] of 97.2%.

In the case of `CC(C)c1ccc2[nH]c(CCCCCCC[n+]3ccccc3)cc2c1` [Compound 322], the “% Inhibition” value [2, 3] is reported as 14.40%.

For `C[n+]1cccc(C(=O)OCCCCCCCCc2cc3ccc(C(F)(F)F)cc3[nH]2)c1` [Compound 915], the “% Inhibition” value ([2]; compound at 0.25 mM) was 95.7%.

In the case of `c1ccc2[nH]c(CCCCCCCC[n+]3cccc4ccccc43)cc2c1` [Compound 395], the “% Inhibition” value ([2]; compound at 0.1 mM (Table 314)) is reported as 20.85%.
